From article PMC5323132, “Targeting prohibitins induces apoptosis in acute myeloid leukemia cells” (Oncotarget, 2016)
Several values for one entry are separate records, joined by “and”; a condition that tells them apart may be missing. Equal entries are not always repeated. Where two headings read alike, the source gives them in different places.

Experiments:
U-937 cells [1] = assay: Viability by phosphatidylserine exposure (annexin V) flow cytometry; assay type: cell-based, human; settings: for viability at 5 µM: Homo sapiens, read-out: Viability (%) (annexin V negative cells)
Method: (§1) Cell viability was assessed by phosphatidylserine exposure and measured as the percentage of annexin V-negative cell population. […] Occasionally, 3.75 μL PI were added after annexin V staining and immediately before acquisition to measure the percentage of annexin V^−/PI^− live cells. In AML samples with infiltration lower than 80% blasts, double staining with anti-CD33 or anti-CD34, and annexin V was performed. In brief, cells were washed in ABB and incubated in 50 μL ABB containing 0.5 μL anti-CD33 or anti-CD34 for 10 min in the dark and thereafter stained with annexin V, as previously mentioned. Cells were acquired using the FACSCanto^TM II flow cytometer (Becton Dickinson, Franklin Lakes, NJ, USA) and data of bulk leukemic/normal and CD33^+- or CD34^+-gated leukemic/normal progenitor cells were analyzed using the FACSDiva^TM software (Becton Dickinson). […] Patient samples were considered as “sensitive” to fluorizoline when cell viability was lower than 80% after incubation with 20 μM during 48 hours.

HL-60 cells [2] = assay: as above; assay type: cell-based, human; settings: 48 hours
Method: (§2) Cell viability was assessed by phosphatidylserine exposure and measured as the percentage of annexin V-negative cell population. After incubation of 1.25 × 10^5 cells with the indicated factors and times, cells were then washed in annexin-binding buffer (ABB) and incubated in 100 μL ABB with 0.5 μL annexin V-APC for 10 min in the dark and then diluted with ABB to a final volume of 150 μL. Occasionally, 3.75 μL PI were added after annexin V staining and immediately before acquisition to measure the percentage of annexin V^−/PI^− live cells. In AML samples with infiltration lower than 80% blasts, double staining with anti-CD33 or anti-CD34, and annexin V was performed. In brief, cells were washed in ABB and incubated in 50 μL ABB containing 0.5 μL anti-CD33 or anti-CD34 for 10 min in the dark and thereafter stained with annexin V, as previously mentioned. Cells were acquired using the FACSCanto^TM II flow cytometer (Becton Dickinson, Franklin Lakes, NJ, USA) and data of bulk leukemic/normal and CD33^+- or CD34^+-gated leukemic/normal progenitor cells were analyzed using the FACSDiva^TM software (Becton Dickinson). Half-maximal lethal dose (LD50) was defined as the concentration of drug required to reduce the cell viability by 50%. Patient samples were considered as “sensitive” to fluorizoline when cell viability was lower than 80% after incubation with 20 μM during 48 hours.

CD11b in U-937 cells = assay: Differentiation assay, CD11b surface expression by flow cytometry; assay type: cell-based; settings: Homo sapiens, 48 hours, read-out: CD11b surface marker expression, fold induction compared to DMSO-treated cells
Method: (§3) Myeloid maturation induction was assessed by cell surface marker expression analysis. U-937 and primary AML cells were treated as indicated for cell viability assays. After 24 and 48 hours of incubation cells were collected and stained in 50 μL PBS buffer containing 2 mM EDTA and 0.5% bovine serum albumin (BSA) with 0.5 μL anti-human CD11b for 10 min in the dark and then diluted with buffer to a final volume of 150 μL. In parallel, cell viability was analyzed by annexin V staining in separated tubes. Surface expression of the antigen was analyzed by flow cytometry. In these experiments vehicle-treated cells were also included in order to discard DMSO-induced myeloid differentiation.

[3] = tested on: CD11b in de novo AML primary samples; assay: as above; assay type: cell-based; settings: Homo sapiens, 48 hours, read-out: CD11b surface marker expression, fold induction compared to DMSO-treated cells
Method: as §3

[4] = tested on: CD34- population of AML specimens; assay: Ex vivo viability (annexin V) on CD34- population of AML specimens; assay type: cell-based, human; settings: six AML specimens, 48 hours
Method: as §2

[5] = tested on: normal BMMNC and normal hematopoietic stem cells (PBSC); assay: Ex vivo viability (annexin V) of normal hematologic cells; assay type: cell-based, human; settings: for median LD50: normal cells
Method: (§4) Normal BMMNC was obtained from apheresis-collected granulocyte colony-stimulating factor (G-CSF)-mobilized progenitor-cell from PB of 3 healthy donors were used as a source of normal CD34^+ cells.
as §1

[6] = as above; assay type: cell-based, human; settings: human, normal BMMNC and normal hematopoietic stem cells (PBSC); normal cells, 20 μM, 24 hours; read-out: viable cells (percentage of viability of untreated cells)
Method: as §4, §1

[7] = tested on: primary AML cells (BMMNC or PBMNC from AML patients); assay: Ex vivo viability (annexin V) of primary AML cells; assay type: cell-based, human
Method: PBMNC and BMMNC were isolated by centrifugation on a Biocoll (Biochrom AG, Berlin, Germany) gradient and cryopreserved in liquid nitrogen in the presence of 10% dimethyl sulfoxide (DMSO) (Sigma-Aldrich Inc, St Louis, MO, USA).
as §1

NOXA mRNA in U-937 cells = assay: RT-MLPA apoptosis-related gene expression; assay type: cell-based; settings: Homo sapiens
Method: RNA was isolated from cultured 3–5 × 10^6 cells by the RNeasy Micro kit (Qiagen GmbH, Hilden, Germany) according to the manufacturer's protocol. RNA was analyzed by RT-MLPA using SALSA MLPA KIT R011-C1 Apoptosis mRNA from MRC-Holland (Amsterdam, The Netherlands) for the simultaneous detection of 40 messenger RNA molecules, including apoptosis-related genes. In brief, RNA samples (200 ng total RNA) were first reverse transcribed using a gene-specific primer mix. The resulting cDNA was annealed overnight at 60°C to the RT-MLPA probe mix. Annealed oligonucleotides were ligated by adding Ligase-65 (MRC-Holland) and incubated at 54°C for 15 min. Ligation products were amplified by PCR (35 cycles, 30 s at 95°C; 30 s at 60°C, and 1 min at 72°C) with one unlabeled and one FAM-labeled primer. The final PCR fragments amplified were separated by capillary electrophoresis on a 96-capillary ABI-Prism® 3730XL Genetic Analyzer (Applied Biosystems/Hitachi, Carlsbad, CA, USA). Peak area and height were measured using GeneMapper^TM v3.0 analysis software (Applied Biosystems). Ratios of individual peaks relative to the sum of all peaks were calculated, resulting in the relative abundance of mRNAs of the genes of interest.

U-937 cells [8] = assay: MTT cell viability assay; assay type: cell-based; settings: Homo sapiens, read-out: IC50 (half-maximal inhibitory concentration), MTT
Method: (§5) HL-60 and U-937 cells (1.25 × 10^5 cells/well) were incubated in the absence or in the presence of the indicated factors, in a final volume of 250 μL. After 24 or 48 hours, 25 μL MTT reagent (prepared at 5 mg/mL in phosphate-buffered saline (PBS)) was added to each well for an additional 3 hours. The blue MTT formazan precipitate was dissolved in 250 μL isopropanol:1 M HCl (24:1). Then, 100 μL of this cell lysate were plated in a 96-well plate in triplicate and the absorbance values at 570 nm were measured on a multiwell plate reader. The half-maximal inhibitory concentration (IC50) was defined as the concentration of drug required to reduce the MTT metabolization ability by 50%.

HL-60 cells [9] = assay: MTT cell viability assay; assay type: cell-based; settings: Homo sapiens, read-out: IC50 (half-maximal inhibitory concentration), MTT
Method: as §5

[10] = tested on: CD34+ population of AML specimens; assay: Ex vivo viability (annexin V) on CD34+ population of AML specimens; assay type: cell-based, human; settings: six AML specimens, 48 hours
Method: as §2

U-937 cells [11] = assay: Methylcellulose colony-forming unit (CFU) assay; assay type: cell-based, human; settings: pretreated 24 hours, n = 4
Method: (§6) The analysis of the clonogenic capacity after exposition to the fluorizoline was performed using a methylcellulose-based medium with recombinant cytokines and erythropoietin (EPO) for human hematopoietic progenitor cells (MethoCult^TM H4034 Optimum, StemCell Technologies). U-937 cells and primary AML cells were pretreated for 24 hours with the indicated factors, as previously mentioned. Then, cells (1 × 10^3 U-937 cells or 50 × 10^3 primary AML cells) were diluted in 100 μL serum-free IMDM with 25 mM HEPES, homogeneously mixed with 1 mL MethoCult^TM medium, seeded in duplicate cultures and maintained at 37°C with 5% CO2 in air in a humidified atmosphere. Colonies (CFU) were screened based on morphology and cellularity at day 10 (U-937 cells) or day 14 (primary AML cells) using an inverted microscope. A colony was defined as a cluster of > 40 cells.

primary AML cells = assay: Methylcellulose colony-forming unit (CFU) assay; assay type: cell-based, human; settings: pretreated 24 hours, n = 5
Method: as §6

[12] = Figure 5C, 24 h, fluorizoline 5 μM, Q-VD-OPh 20 μM pre-incubated 30 min

In the case of CC(C)[C@H](NC(=O)c1ccc2ccccc2n1)C(=O)N[C@@H](CC(=O)O)C(=O)COc1c(F)cccc1F [Q-VD-OPh, reference compound], the “Viability (%) (annexin V negative cells)” value (U-937 cells [1]; [12]) is reported as 95%.

In the case of FC1(F)N=C(c2ccc(Cl)cc2)SC1(F)c1ccc(Cl)cc1 (centres unmarked) [fluorizoline], the “LD50 (half-maximal lethal dose), annexin V” value (HL-60 cells [2]) is reported as 40 µM, the fold induction at 40 µM (CD11b in U-937 cells) is reported as 12.1 and the fold induction at 20 µM [3] is reported as 1.5. The LD50 [4] was “higher than 20 μM”, the “LD50(μM) 24 h” value ([5]; Donor No. 1-9, 24 h) was > 20 µM and 16 µM and the “LD50(μM) 48 h” value ([5]; Donor No. 1-9, 48 h) was > 20 µM and 8 µM and 13 µM. The “median LD50” value ([5]; 24 hours) was “above 20 μM”, the “median LD50” value ([5]; 48 hours) was “above 20 μM” and the viability at 24 h, 20 µM [6] was 68.6%. The “median LD50” value ([7]; 24 hours, sensitive patient samples (n = 15)) was 8.0 ± 1.7 µM, the “mean LD50” value ([7]; 48 hours, n = 21) was 5.3 ± 0.8 µM and the viability at 10 µM ([7]; Homo sapiens, 2 h, Figure 6B, patient #14, 10 μM, 2 h, read-out: Viability (%) (annexin V negative cells)) was 95%. For the same compound, the viability at 10 µM ([7]; Homo sapiens, 4 h, Figure 6B, patient #14, 10 μM, 4 h, read-out: Viability (%) (annexin V negative cells)) was 92%, the viability at 10 µM ([7]; Homo sapiens, 8 h, Figure 6B, patient #14, 10 μM, 8 h, read-out: Viability (%) (annexin V negative cells)) was 87% and the viability at 10 µM ([7]; Homo sapiens, 8 h, Figure 6C, patient #13, 10 μM, 8 h, read-out: Viability (%) (annexin V negative cells)) was 35%. It also gave a viability at 10 µM ([7]; Homo sapiens, 8 h, Figure 6C, patient #16, 10 μM, 8 h, read-out: Viability (%) (annexin V negative cells)) of 50%, a viability at 10 µM ([7]; Homo sapiens, 8 h, Figure 6C, patient #18, 10 μM, 8 h, read-out: Viability (%) (annexin V negative cells)) of 80% and a viability at 10 µM ([7]; Homo sapiens, 8 h, Figure 6C, patient #20, 10 μM, 8 h, read-out: Viability (%) (annexin V negative cells)) of 43%. The viability at 2.5 µM ([7]; Homo sapiens, 8 h, Figure 6C, patient #21, 2.5 μM, 8 h, read-out: Viability (%) (annexin V negative cells)) was 37%, the viability at 10 µM ([7]; Homo sapiens, 12 h, Figure 6B, patient #14, 10 μM, 12 h, read-out: Viability (%) (annexin V negative cells)) was 81% and the viability at 10 µM ([7]; Homo sapiens, 24 h, 10 μM, 24 hours, n = 20 AML samples, untreated 75.8% ± 2.9%, read-out: cell viability (annexin V negative cells)) was 35.5%. The viability at 10 µM ([7]; Homo sapiens, Figure 6D, patient #20, 24 h, fluorizoline 10 μM, Q-VD-OPh 20 μM pre-incubated 30 min, read-out: Viability (%) (annexin V negative cells)) was 25%, the “median LD50” value ([7]; samples at relapse (n = 6), 24 hours) was 10.3 ± 4.0 µM and the “median LD50” value ([7]; samples at relapse (n = 6), 48 hours) was 5.4 ± 1.6 µM. The “annexin V-/PI+ population” value (U-937 cells [1]; 10 µM fluorizoline, 24 h, annexin V/PI double staining) was “less than 6%”, the “mean LD50, annexin V” value (U-937 cells [1]; 24 hours) was “above 40 μM” and the “mean LD50, annexin V” value (U-937 cells [1]; 48 hours) was 14 µM. It also gave a viability at 5 µM (U-937 cells [1]; Figure 5B, 5 μM, 4 h) of 93%, a viability at 5 µM (U-937 cells [1]; Figure 5B, 5 μM, 8 h) of 92% and a viability at 5 µM (U-937 cells [1]; Figure 5B, 5 μM, 24 h) of 64%. The viability at 5 µM (U-937 cells [1]; [12]) was 63%, the fold induction at 10 µM (NOXA mRNA in U-937 cells; 4 hours) was 3.5 and the fold induction at 10 µM (NOXA mRNA in U-937 cells; 8 hours) was 6.6. The fold induction at 10 µM (NOXA mRNA in U-937 cells; 24 hours) was 3.1, the IC50 (U-937 cells [8]; U-937, 24 h) was 7 µM and the IC50 (U-937 cells [8]; U-937, 48 h) was 5 µM. The IC50 (HL-60 cells [9]; HL-60, 24 h) was 8 µM, the IC50 (HL-60 cells [9]; HL-60, 48 h) was 6 µM and the LD50 [10] was 4.5 ± 2.3 µM. For the same compound, the “mean CFU respect to untreated cells” value (U-937 cells [11]; 5 μM) was 49.9 ± 5%, the “mean CFU respect to untreated cells” value (U-937 cells [11]; 10 μM) was 1.9 ± 1% and the “mean CFU respect to untreated cells” value (primary AML cells; 2.5 μM) was 39.9 ± 5%. The “mean CFU respect to untreated cells” value (primary AML cells; 10 μM) was 5.3 ± 1.5%.
